Experimental data from patent publication US8575197B2, “Pyrolinone derivative and pharmaceutical composition comprising the same” (Shionogi & Co., Ltd., priority 2008, dated 2013).

molecular target: human P2X3 receptor (Homo sapiens (Human), UniProt P56373); assay: P2X3 receptor inhibition, ATP-evoked Fluo-3 calcium fluorescence (FDSS 3000); assay type: cell-based; details: C6BU-1 cell transfected with human P2X3 receptor gene; ATP-evoked Fluo-3 fluorescence
Outline: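 C6BU-1 cells stably transfected with human P2X3, loaded with 4 μM Fluo-3-AM for 1 h at 37 °C in HEPES buffer pH 7.5 with probenecid. Compound added 5 min before 40 nM ATP solution; fluorescence followed 3 min. IC50 from ratio of peak post-ATP to baseline fluorescence.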

human P2X3 receptor, sequence (P56373 whole entry): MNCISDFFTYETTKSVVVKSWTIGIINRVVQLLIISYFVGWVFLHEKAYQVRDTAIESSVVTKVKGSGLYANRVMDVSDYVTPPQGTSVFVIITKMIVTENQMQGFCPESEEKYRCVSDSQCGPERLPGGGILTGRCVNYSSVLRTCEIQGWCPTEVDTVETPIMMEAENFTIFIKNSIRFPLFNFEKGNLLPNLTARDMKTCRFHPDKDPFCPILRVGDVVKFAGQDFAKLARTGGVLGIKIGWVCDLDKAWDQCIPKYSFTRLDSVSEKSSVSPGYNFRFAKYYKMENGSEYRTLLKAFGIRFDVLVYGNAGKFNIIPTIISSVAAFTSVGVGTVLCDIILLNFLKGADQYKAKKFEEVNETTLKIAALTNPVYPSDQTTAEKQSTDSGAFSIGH

Row | IC50 [µM] | Structure (SMILES)
1 | 0.003 | COc1ccccc1C1c2c(C(C)(C)C)n[nH]c2C(=O)N1c1ccc(-c2cccs2)nc1 (stereo not drawn) [II-255]
2 | 0.018 | COc1ccccc1C1c2c(C(C)(C)C)n[nH]c2C(=O)N1c1ccc(-c2cccs2)cn1 (stereo not drawn) [II-256]
3 | 0.033 | COc1ccccc1C1c2c(C(C)(C)C)n[nH]c2C(=O)N1c1ccc(-c2ccco2)cn1 (stereo not drawn) [II-257]
4 | 0.304 | COc1ccccc1C1c2c(C(C)(CO)CO)n[nH]c2C(=O)N1c1ccc(-c2ccon2)cc1 (stereo not drawn) [II-258]
5 | 0.41 | COc1ncccc1C1c2c(C(C)(C)C)n[nH]c2C(=O)N1c1ccc(Br)cn1 (stereo not drawn) [II-259]
6 | 0.036 | COc1ncccc1C1c2c(C(C)(C)C)n[nH]c2C(=O)N1c1ccc(-c2cccs2)cn1 (stereo not drawn) [II-260]
7 | 0.14 | COc1ncccc1C1c2c(C(C)(C)C)n[nH]c2C(=O)N1c1ccc(-c2ccoc2)cn1 (stereo not drawn) [II-261]
8 | 0.039 | COc1ncccc1C1c2c(C(C)(C)C)n[nH]c2C(=O)N1c1ccc(-c2ccsc2)cn1 (stereo not drawn) [II-262]
9 | 0.108 | COc1ncccc1C1c2c(C(C)(C)C)n[nH]c2C(=O)N1c1ccc(-c2ccco2)cn1 (stereo not drawn) [II-263]
10 | 0.011 | COc1ccccc1C1c2c(C(C)(C)CO)n[nH]c2C(=O)N1c1ccc(-c2cccs2)cn1 (stereo not drawn) [II-264]
11 | 0.031 | COc1ccccc1C1c2c(C(C)(C)CO)n[nH]c2C(=O)N1c1ccc(-c2ccco2)cn1 (stereo not drawn) [II-265]
12 | 0.007 | COc1ccccc1C1c2c(C(C)(CO)CO)n[nH]c2C(=O)N1c1ccc(-c2ccsc2)cc1 (stereo not drawn) [II-266]
13 | 0.024 | COc1ncccc1C1c2c(C(C)(C)C)n[nH]c2C(=O)N1c1ccc(-c2ccsc2)nc1 (stereo not drawn) [II-268]
14 | 0.363 | COc1ncccc1C1c2c(C(C)(C)C)n[nH]c2C(=O)N1c1ccc(-c2ccoc2)nc1 (stereo not drawn) [II-269]
15 | 0.025 | COc1ncccc1C1c2c(C(C)(C)C)n[nH]c2C(=O)N1c1ccc(-c2cccs2)nc1 (stereo not drawn) [II-270]
16 | 0.153 | COc1ncccc1C1c2c(C(C)(C)C)n[nH]c2C(=O)N1c1ccc(-c2ccco2)nc1 (stereo not drawn) [II-271]
17 | 0.392 | COc1ccccc1C1c2c(C(C)(C)C)n[nH]c2C(=O)N1c1ccc(-c2ccsc2Cl)cc1 (stereo not drawn) [II-272]
18 | 0.019 | COc1ccccc1C1c2c(C(C)(C)C)n[nH]c2C(=O)N1c1ccc(-c2csc(C)c2)cc1 (stereo not drawn) [II-274]
19 | 0.027 | COc1ccccc1C1c2c(C(C)(C)C)n[nH]c2C(=O)N1c1ccc(-c2ccc(C)s2)cc1 (stereo not drawn) [II-275]
20 | 0.274 | COCCOCc1ncccc1C1c2c(C(C)(C)C)n[nH]c2C(=O)N1c1ccc(-c2ccsc2)cc1 (stereo not drawn) [II-277]
21 | 0.013 | COCCOc1ncccc1C1c2c(C(C)C)n[nH]c2C(=O)N1c1ccc(-c2ccsc2)cc1 (stereo not drawn) [II-278]
22 | 0.378 | COCCOc1ncccc1C1c2c(C(C)C)n[nH]c2C(=O)N1c1ccc(-c2ccon2)cc1 (stereo not drawn) [II-279]
23 | 0.244 | COCCOc1ncccc1C1c2c(C(C)C)n[nH]c2C(=O)N1c1ccc(-c2noc(C)n2)cc1 (stereo not drawn) [II-280]
24 | 0.664 | COCCOc1ncccc1C1c2c(n[nH]c2C(C)C)C(=O)N1c1ccc(-c2nc(C)no2)cc1 (stereo not drawn) [II-281]
